Experimental data taken from ChEMBL document CHEMBL5247598 (Eur J Med Chem, 2022).
Activity calls are given as the source filed them. The calls are words filed in the database; no cut-off is given here.

Assays:
HEK-293T = test: Cytotoxicity against human HEK293T cells assessed as cell survival rate at 10 uM incubated for 48 hrs by MTT assay; format: toxicity, cell-based
NCI/ADR-RES [1] = test: Induction of apoptosis in human NCI-ADR-RES cells assessed as late apoptotic cells at 3 uM incubated for 48 hrs by Annexin V-FITC and DAPI staining based flow cytometry (Rvb= 0.66 %); format: functional
NCI/ADR-RES [2] = test: Induction of apoptosis in human NCI-ADR-RES cells assessed as necrotic cells at 3 uM incubated for 48 hrs by Annexin V-FITC and DAPI staining based flow cytometry (Rvb= 0.55 %); format: functional
MCF7 = test: Antiproliferative activity against human MCF7 cells assessed as inhibition of cell growth at 50 uM incubated for 48 hrs by MTT assay; format: functional, cell-based
A549 = test: Antiproliferative activity against human A549 cells assessed as inhibition of cell growth at 50 uM incubated for 48 hrs by MTT assay; format: functional, cell-based
NCI/ADR-RES [3] = test: Reversal of P-gp-mediated multidrug resistance in human NCI-ADR-RES cells assessed as change in ABCB1 expression level at 1 to 10 uM incubated for 24 hrs in presence of doxorubicin by Western blot analysis; format: functional, cell-based; conditions: dose 1-10 µM
NCI/ADR-RES [4] = test: Reversal of P-gp-mediated multidrug resistance in human NCI-ADR-RES cells assessed as change in ABCB1 expression level at 1 to 10 uM incubated for 48 hrs in presence of doxorubicin by Western blot analysis; format: functional, cell-based; conditions: dose 1-10 µM
[5] = target: ATP-dependent translocase ABCB1 (Homo sapiens, UniProt P08183); test: Effect on P-gp (unknown origin) ATPase activity assessed as increased ATP consumption using Mg-ATP as substrate preincubated for 5 min followed by Mg-ATP addition and measured after 40 mins by P-gp Glo luminescence assay
NCI/ADR-RES [6] = test: Induction of apoptosis in human NCI-ADR-RES cells assessed as necrotic cells at 3 uM incubated for 24 hrs by Annexin V-FITC and DAPI staining based flow cytometry (Rvb= 0.55 %); format: functional
NCI/ADR-RES [7] = test: Induction of apoptosis in human NCI-ADR-RES cells assessed as late apoptotic cells at 8 uM incubated for 24 hrs in presence of doxorubicin by Annexin V-FITC and DAPI staining based flow cytometry (Rvb= 0.66 %); format: functional
NCI/ADR-RES [8] = test: Induction of apoptosis in human NCI-ADR-RES cells assessed as early apoptotic cells at 8 uM incubated for 48 hrs in presence of doxorubicin by Annexin V-FITC and DAPI staining based flow cytometry (Rvb= 0.89 %); format: functional
NCI-ADR-RES = test: Inhibition of PI3K/AKT signaling pathway in human NCI-ADR-RES cells assessed as decrease in Bcl-2 level at 3 uM incubated for 24 to 48 hrs in presence of doxorubicin by Western blot analysis; format: cell-based; conditions: time 24-48 hrs

ATP-dependent translocase ABCB1, sequence (P08183 whole entry): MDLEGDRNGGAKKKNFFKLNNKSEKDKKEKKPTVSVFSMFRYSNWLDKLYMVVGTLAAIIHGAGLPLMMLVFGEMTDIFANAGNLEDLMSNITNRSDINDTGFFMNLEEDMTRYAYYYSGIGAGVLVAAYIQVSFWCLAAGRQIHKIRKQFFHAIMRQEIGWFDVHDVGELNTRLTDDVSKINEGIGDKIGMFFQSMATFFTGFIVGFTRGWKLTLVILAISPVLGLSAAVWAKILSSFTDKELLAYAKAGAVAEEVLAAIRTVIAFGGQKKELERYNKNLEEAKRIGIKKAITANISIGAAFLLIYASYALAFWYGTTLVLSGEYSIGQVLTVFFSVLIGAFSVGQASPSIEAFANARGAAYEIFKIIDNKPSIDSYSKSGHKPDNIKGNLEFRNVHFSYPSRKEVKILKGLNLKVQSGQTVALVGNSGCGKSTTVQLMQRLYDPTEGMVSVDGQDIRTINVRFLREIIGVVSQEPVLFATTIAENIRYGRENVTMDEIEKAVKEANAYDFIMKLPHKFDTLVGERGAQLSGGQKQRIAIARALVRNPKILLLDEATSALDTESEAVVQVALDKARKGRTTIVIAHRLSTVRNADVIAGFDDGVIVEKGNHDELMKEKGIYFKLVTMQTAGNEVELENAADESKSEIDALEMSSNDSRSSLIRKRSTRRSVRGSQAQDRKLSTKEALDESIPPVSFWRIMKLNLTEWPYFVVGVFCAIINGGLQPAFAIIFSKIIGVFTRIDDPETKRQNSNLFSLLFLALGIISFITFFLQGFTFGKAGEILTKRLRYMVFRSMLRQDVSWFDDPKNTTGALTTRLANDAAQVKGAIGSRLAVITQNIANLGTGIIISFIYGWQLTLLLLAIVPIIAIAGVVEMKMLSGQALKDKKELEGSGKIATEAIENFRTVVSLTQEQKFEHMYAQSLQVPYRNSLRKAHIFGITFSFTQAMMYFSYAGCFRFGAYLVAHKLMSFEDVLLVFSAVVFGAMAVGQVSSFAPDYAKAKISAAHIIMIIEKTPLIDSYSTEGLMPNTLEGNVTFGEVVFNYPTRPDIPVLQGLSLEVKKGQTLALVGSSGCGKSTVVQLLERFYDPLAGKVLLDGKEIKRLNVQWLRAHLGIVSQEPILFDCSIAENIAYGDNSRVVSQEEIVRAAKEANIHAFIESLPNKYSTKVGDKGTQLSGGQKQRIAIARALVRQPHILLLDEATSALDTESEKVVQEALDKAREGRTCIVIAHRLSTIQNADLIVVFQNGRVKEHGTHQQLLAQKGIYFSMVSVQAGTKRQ

- EC50 [5]: 357 nM
SMILES: C=C1[C@H](OC(C)=O)[C@@H](OC(C)=O)[C@@H](OC(C)=O)C(C)(C)/C=C/[C@H](C)[C@H](OC(=O)c2ccccc2)[C@@]2(O)C[C@@](C)(OC(=O)C(C)(C)C)[C@H](OC(C)=O)[C@@H]2[C@H]1OCC(C)C
- Activity (HEK-293T): Non-Toxic
- Activity (NCI/ADR-RES [1]): 0.73%
- Activity (NCI/ADR-RES [2]): 0.43%
- Activity (MCF7): inactive
- Activity (A549): inactive
- Activity (NCI/ADR-RES [3]): Active
- Activity (NCI/ADR-RES [4]): Active
- Activity (NCI/ADR-RES [6]): 1.06%
- Activity (NCI/ADR-RES [7]): 1.56%
- Activity (NCI/ADR-RES [8]): 16.4%
- inhibition (NCI-ADR-RES): Active
